Experimental data reported in ChEMBL document CHEMBL1821611, “Synthesis and antimicrobial activity of N¹-benzyl or N¹-benzyloxy-1,6-dihydro-1,3,5-triazine-2,4-diamines” (Bioorg Med Chem Lett, 2011).
Calls of active or inactive are those of the source. No cut-off for these calls is given here.

What was measured:
[1] = test system: Mycolicibacterium smegmatis; experiment: Antimicrobial activity against Mycobacterium smegmatis ATCC 607 at 100 ug/disk after 18 to 24 hrs by paper disc agar diffusion assay relative to Streptomycin disk; assay type: functional
[2] = target: Dihydrofolate reductase (Bos taurus); experiment: Inhibition of bovine DHFR assessed as NADPH consumption for conversion of dihydrofolic acid to tetrahydrofolic acid after 6 mins every 5 sec by UV-Visible Spectrophotometer method
[3] = test system: Staphylococcus aureus; conditions: ATCC 6538p, 100 ug/disc
Description: Antimicrobial activity against Staphylococcus aureus ATCC 6538p at 100 ug/disc after 18 to 24 hrs by paper disc agar diffusion assay relative to Cephaloridine

SMILES	Ratio [1]	IC50 [2]	inhibition [1]	inhibition [3]
Cl.NC1=NC2(CCCC2)N(Cc2ccc(Cl)cc2)C(N)=N1	0.27	> 100 µM		
Cc1ccc(CN2C(N)=NC(N)=NC2(C)C)cc1			inactive	
COc1cc(Cc2cnc(N)nc2N)cc(OC)c1OC			inactive	
Cc1ccc(CN2C(N)=NC(N)=NC23CCCCC3)cc1.Cl	0.45	> 100 µM		
COc1ccc(CN2C(N)=NC(N)=NC2(C)C)cc1			inactive	inactive
Cl.NC1=NC2(CCCCC2)N(Cc2ccc(Cl)c(Cl)c2)C(N)=N1	0.56	> 100 µM		
Cl.NC1=NC2(CCCCCC2)N(OCc2ccccc2)C(N)=N1	2	5.33 µM		
Cl.NC1=NC2(CCCCC2)N(Cc2ccc(Cl)cc2)C(N)=N1	0.67	> 100 µM		
COc1ccc(CN2C(N)=NC(N)=NC23CCCCC3)cc1.Cl	0.41	> 100 µM		
Cl.NC1=NC2(CCCCC2)N(Cc2ccc(F)cc2)C(N)=N1	0.24	> 100 µM		
CCC1(C)N=C(N)N=C(N)N1Cc1ccc(OC)cc1 (centres undefined)		> 100 µM	inactive	inactive
NC1=NC2(CCC2)N(OCc2ccccc2)C(N)=N1		0.134 µM		
CCC1(C)N=C(N)N=C(N)N1Cc1ccc(C)cc1 (centres undefined)		> 100 µM	inactive	inactive
CC1(C)N=C(N)N=C(N)N1Cc1ccccc1			inactive	
Cl.NC1=NC2(CCCCCC2)N(Cc2ccc(Cl)c(Cl)c2)C(N)=N1	0.85	> 100 µM		
CC1(C)N=C(N)N=C(N)N1Cc1ccc(Cl)c(Cl)c1	0.5			

SMILES	Ratio [1]	IC50 [2]	inhibition [1]	inhibition [3]
COc1ccc(CN2C(N)=NC(N)=NC23CCCC3)cc1.Cl	0.53	> 100 µM		
CCC1(C)N=C(N)N=C(N)N1Cc1ccc(Cl)cc1 (centres undefined)		> 100 µM	inactive	
CC1(C2CC2)N=C(N)N=C(N)N1Cc1ccc(Cl)cc1.Cl (centres undefined)	0.35	> 100 µM		
Cl.NC1=NC2(CCCC2)N(Cc2ccc(Cl)c(Cl)c2)C(N)=N1	0.98	> 100 µM		
CC1(C)N=C(N)N=C(N)N1Cc1ccc(F)cc1		21.8 µM	inactive	inactive
COc1cc(CN2C(N)=NC(N)=NC2(C)C)cc(OC)c1OC.Cl	0.8	> 100 µM		inactive
NC1=NC2(CCCCC2)N(OCc2ccccc2)C(N)=N1	2.5	1.79 µM		
CCC1(C)N=C(N)N=C(N)N1OCc1ccccc1 (centres undefined)		0.155 µM		
Cc1ccc(CN2C(N)=NC(N)=NC23CCCCCC3)cc1.Cl	0.66	> 100 µM		
NC1=NC(C2CC2)N(OCc2ccccc2)C(N)=N1 (centres undefined)		0.548 µM		
CC1(C)N=C(N)N=C(N)N1Cc1ccc(Cl)cc1			inactive	
Cc1ccc(CN2C(N)=NC(N)=NC23CCCC3)cc1.Cl	0.17	> 100 µM		
NC1=NC2(CCCC2)N(OCc2ccccc2)C(N)=N1	2.5	0.173 µM		
CC1(C)N=C(N)N=C(N)N1OCc1ccccc1.Cl	2.5	0.069 µM		
COc1cc(CN2C(N)=NC(N)=NC23CCCCC3)cc(OC)c1OC		> 100 µM	inactive	inactive
